From patent US6727232B2, “Nucleoside peptide antibiotics of AA-896” (Wyeth Holdings Corporation, priority 2001, dated 2004)
Converted amounts (≈) assume the structure as drawn. Like-named read-outs stand apart in the source and are kept apart here.

Assays:
Experiment in all cases: Broth dilution MIC
Format in all cases: cell-based
CNS GC 4537 = conditions: read-out: Antimicrobial Activity (MIC)
Procedure, shortened: (§1)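 MIC reported as the lowest compound concentration preventing growth after 18 hours of incubation at 35° C., using serial dilutions in Mueller-Hinton broth inoculated with the test strain.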

CNS GC 4538 = conditions: read-out: Antimicrobial Activity (MIC)
Procedure, shortened: as §1

CNS GC 4547 = conditions: read-out: Antimicrobial Activity (MIC)
Procedure, shortened: as §1

E. cloacae GC 3783 = conditions: Enterobacter cloacae, read-out: Antimicrobial Activity (MIC)
Procedure, shortened: as §1

E. coli GC 2203 = conditions: Escherichia coli, read-out: Antimicrobial Activity (MIC)
Procedure, shortened: as §1

E. coli GC 3226 = conditions: Escherichia coli, read-out: Antimicrobial Activity (MIC)
Procedure, shortened: as §1

E. coli GC 4559 = conditions: Escherichia coli, read-out: Antimicrobial Activity (MIC)
Procedure, shortened: as §1

E. coli GC 4560 = conditions: Escherichia coli, read-out: Antimicrobial Activity (MIC)
Procedure, shortened: as §1

E. faecalis GC 2242 = conditions: Enterococcus faecalis, read-out: Antimicrobial Activity (MIC)
Procedure, shortened: as §1

E. faecalis GC 4555 = conditions: Enterococcus faecalis, read-out: Antimicrobial Activity (MIC)
Procedure, shortened: as §1

E. faecalis GC 842 = conditions: Enterococcus faecalis, read-out: Antimicrobial Activity (MIC)
Procedure, shortened: as §1

K. pneumoniae GC 4534 = conditions: Klebsiella pneumoniae, read-out: Antimicrobial Activity (MIC)
Procedure, shortened: as §1

M. morganii GC 4531 = conditions: Morganella morganii, read-out: Antimicrobial Activity (MIC)
Procedure, shortened: as §1

P. aeruginosa GC 2214 = conditions: Pseudomonas aeruginosa, read-out: Antimicrobial Activity (MIC)
Procedure, shortened: as §1

P. aeruginosa GC 4532 = conditions: Pseudomonas aeruginosa, read-out: Antimicrobial Activity (MIC)
Procedure, shortened: as §1

P. rettgeri GC 4530 = conditions: Providencia rettgeri, read-out: Antimicrobial Activity (MIC)
Procedure, shortened: as §1

S. aureus GC 1131 = conditions: Staphylococcus aureus, read-out: Antimicrobial Activity (MIC)
Procedure, shortened: as §1

S. aureus GC 2216 = conditions: Staphylococcus aureus, read-out: Antimicrobial Activity (MIC)
Procedure, shortened: as §1

S. aureus GC 4536 = conditions: Staphylococcus aureus, read-out: Antimicrobial Activity (MIC)
Procedure, shortened: as §1

S. marcescens GC 4077 = conditions: Serratia marcescens, read-out: Antimicrobial Activity (MIC)
Procedure, shortened: as §1

[1] = CNS GC 4537, Mueller-Hinton broth, 18 hours at 35° C.
[2] = CNS GC 4538, Mueller-Hinton broth, 18 hours at 35° C.
[3] = CNS GC 4547, Mueller-Hinton broth, 18 hours at 35° C.
[4] = GC3783, E. cloacae GC 3783, Mueller-Hinton broth, 18 hours at 35° C.
[5] = GC2203, E. coli GC 2203, Mueller-Hinton broth, 18 hours at 35° C.
[6] = GC3226, E. coli GC 3226, Mueller-Hinton broth, 18 hours at 35° C.
[7] = GC4559, E. coli GC 4559, Mueller-Hinton broth, 18 hours at 35° C.
[8] = GC2242, E. faecalis GC 2242, Mueller-Hinton broth, 18 hours at 35° C.
[9] = GC4555, E. faecalis GC 4555, Mueller-Hinton broth, 18 hours at 35° C.
[10] = GC842, E. faecalis GC 842, Mueller-Hinton broth, 18 hours at 35° C.
[11] = GC4534, K. pneumoniae GC 4534, Mueller-Hinton broth, 18 hours at 35° C.
[12] = GC4531, M. morganii GC 4531, Mueller-Hinton broth, 18 hours at 35° C.
[13] = GC2214, P. aeruginosa GC 2214, Mueller-Hinton broth, 18 hours at 35° C.
[14] = GC4532, P. aeruginosa GC 4532, Mueller-Hinton broth, 18 hours at 35° C.
[15] = GC4530, P. rettgeri GC 4530, Mueller-Hinton broth, 18 hours at 35° C.
[16] = GC1131, S. aureus GC 1131, Mueller-Hinton broth, 18 hours at 35° C.
[17] = GC2216, S. aureus GC 2216, Mueller-Hinton broth, 18 hours at 35° C.
[18] = GC4536, S. aureus GC 4536, Mueller-Hinton broth, 18 hours at 35° C.
[19] = GC4077, S. marcescens GC 4077, Mueller-Hinton broth, 18 hours at 35° C.

| Structure (SMILES) | MIC (CNS GC 4537; [1]) [µg/mL] | MIC (CNS GC 4538; [2]) [µg/mL] | MIC (CNS GC 4547; [3]) [µg/mL] | MIC (E. cloacae GC 3783; [4]) [µg/mL] | MIC (E. coli GC 2203; [5]) [µg/mL] | MIC (E. coli GC 3226; [6]) [µg/mL] | MIC (E. coli GC 4559; [7]) [µg/mL] | MIC (E. coli GC 4560; GC4560, 18 h) [µg/mL] | MIC (E. faecalis GC 2242; [8]) [µg/mL] | MIC (E. faecalis GC 4555; [9]) [µg/mL] | MIC (E. faecalis GC 842; [10]) [µg/mL] | MIC (K. pneumoniae GC 4534; [11]) [µg/mL] | MIC (M. morganii GC 4531; [12]) [µg/mL] | MIC (P. aeruginosa GC 2214; [13]) [µg/mL] | MIC (P. aeruginosa GC 4532; [14]) [µg/mL] | MIC (P. rettgeri GC 4530; [15]) [µg/mL] | MIC (S. aureus GC 1131; [16]) [µg/mL] | MIC (S. aureus GC 2216; [17]) [µg/mL] | MIC (S. aureus GC 4536; [18]) [µg/mL] | MIC (S. marcescens GC 4077; [19]) [µg/mL] | further results |
| --- | --- | --- | --- | --- | --- | --- | --- | --- | --- | --- | --- | --- | --- | --- | --- | --- | --- | --- | --- | --- | --- |
| CCCCCCN1C(=O)C([C@@H](OC2O[C@H](CN)[C@H](O)[C@H]2OC)[C@H]2O[C@@H](n3ccc(=O)[nH]c3=O)[C@H](O)[C@@H]2O)N(CCCNC(=O)C(NC(=O)C(NC(=O)NC(C(=O)O)C(C)C)C2CCNC(=N)N2)C(O)C(C)C)C1=O (stereo partly drawn) [Example 3, 14-[5-((R)-{[(3R,4S,5R)-5-(Aminomethyl)-4-hydroxy-3-methoxytetrahydro-2-furanyl]oxy}{(2S,3S,4R,5R)-5-[2,4-dioxo-3,4-dihydro-1 (2H)-pyrimidinyl]-3,4-dihydroxytetrahydro-2-furanyl}methyl)-3-hexyl-2,4-dioxo-1-imidazolidinyl]-9-(1-hydroxy-2-methylpropyl)-6-(2-iminohexahydro-4-pyrimidinyl)-2-isopropyl-4,7,10-trioxo-3,5,8,11-tetraazatetradecan-1-oic acid] | > 32 | > 32 | > 32 | > 32 | > 32 | > 32 | > 32 | 32 (≈ 30.3 µM) | > 32 | > 32 | > 32 | > 32 | > 32 | > 32 | > 32 | > 32 | > 32 | > 32 | > 32 | > 32 |  |
| COc1ccc(NC(=O)NC[C@H]2OC(O[C@H](C3C(=O)N(c4ccc(OC)cc4)C(=O)N3CCCNC(=O)C(NC(=O)C(NC(=O)NC(C(=O)O)C(C)C)C3CCNC(=N)N3)C(O)C(C)C)[C@H]3O[C@@H](n4ccc(=O)[nH]c4=O)C(O)C3O)C(OC)C2O)cc1 (stereo partly drawn) [Example 13, 14-[5-((R)-{(2S,5R)-5-[2,4-Dioxo-3,4-dihydro-1 (2H)-pyrimidinyl]-3,4-dihydroxytetrahydro-2-furanyl}{[(5R)-4-hydroxy-3-methoxy-5-({[(4-methoxyanilino)carbonyl]amino}methyl)tetrahydro-2-furanyl]oxy}methyl)-3-(4-methoxyphenyl)-2,4-dioxo-1-imidazolidinyl]-9-(1-hydroxy-2-methylpropyl)-6-(2-iminohexahydro-4-pyrimidinyl)-2-isopropyl-4,7,10-trioxo-3,5,8,11-tetraazatetradecan-1-oic Acid] |  |  |  |  |  |  |  | > 32 |  |  |  |  |  |  |  |  |  |  |  |  | MIC (CNS GC 4537; 18 h): > 32 µg/mL; MIC (CNS GC 4538; 18 h): > 32 µg/mL; MIC (CNS GC 4547; 18 h): > 32 µg/mL; MIC (E. cloacae GC 3783; GC3783, 18 h): > 32 µg/mL; MIC (E. coli GC 2203; GC2203, 18 h): > 32 µg/mL; MIC (E. coli GC 3226; GC3226, 18 h): > 32 µg/mL; MIC (E. coli GC 4559; GC4559, 18 h): > 32 µg/mL; MIC (E. faecalis GC 2242; GC2242, 18 h): > 32 µg/mL; MIC (E. faecalis GC 4555; GC4555, 18 h): > 32 µg/mL; MIC (E. faecalis GC 842; GC842, 18 h): > 32 µg/mL; MIC (K. pneumoniae GC 4534; GC4534, 18 h): > 32 µg/mL; MIC (M. morganii GC 4531; GC4531, 18 h): > 32 µg/mL; MIC (P. aeruginosa GC 2214; GC2214, 18 h): > 32 µg/mL; MIC (P. aeruginosa GC 4532; GC4532, 18 h): > 32 µg/mL; MIC (P. rettgeri GC 4530; GC4530, 18 h): > 32 µg/mL; MIC (S. aureus GC 1131; GC1131, 18 h): > 32 µg/mL; MIC (S. aureus GC 2216; GC2216, 18 h): > 32 µg/mL; MIC (S. aureus GC 4536; GC4536, 18 h): > 32 µg/mL; MIC (S. marcescens GC 4077; GC4077, 18 h): > 32 µg/mL |
| CCCCCCCCNC(=O)NC[C@H]1OC(O[C@H](C2C(=O)N(CCCCCCCC)C(=O)N2CCCNC(=O)C(NC(=O)C(NC(=O)NC(C(=O)O)C(C)C)C2CCNC(=N)N2)C(O)C(C)C)[C@H]2O[C@@H](n3ccc(=O)[nH]c3=O)[C@H](O)[C@@H]2O)[C@H](OC)[C@H]1O (stereo partly drawn) [Example 11, 14-[5-((R)-{(2S,3S,4R,5R)-5-[2,4-Dioxo-3,4-dihydro-1 (2H)-pyrimidinyl]-3,4-dihydroxytetrahydro-2-furanyl}{[(3R,4S,5R)-4-hydroxy-3-methoxy-5-({[(octylamino)carbonyl]amino}methyl)tetrahydro-2-furanyl]oxy}methyl)-3-octyl-2,4-dioxo-1-imidazolidinyl]-9-(1-hydroxy-2-methylpropyl)-6-(2-iminohexahydro-4-pyrimidinyl)-2-isopropyl-4,7,10-trioxo-3,5,8,11-tetraazatetradecan-1-oic Acid] | > 32 | > 32 | > 32 | > 32 | > 32 | > 32 | > 32 |  | > 32 | > 32 | > 32 | > 32 | > 32 | > 32 | > 32 | > 32 | > 32 | > 32 | > 32 | > 32 | MIC (E. coli GC 4560; GC4560, E. coli GC 4560, Mueller-Hinton broth, 18 hours at 35° C.): > 32 µg/mL |
| CO[C@H]1C(O[C@H](C(C(=O)O)N(CCCNC(=O)C(NC(=O)C(NC(=O)NC(C(=O)O)C(C)C)C2CCNC(=N)N2)C(O)C(C)C)Cc2ccc(-c3ccccc3)cc2)[C@H]2O[C@@H](n3ccc(=O)[nH]c3=O)[C@H](O)[C@@H]2O)O[C@H](CNCc2ccc(-c3ccccc3)cc2)[C@@H]1O (stereo partly drawn) [Example 19B, 15-([1,1′-Biphenyl]-4-ylmethyl)-16-((R)-[((3R,4S,5R)-5-{[([1,1′-biphenyl]-4-ylmethyl)amino]methyl}-4-hydroxy-3-methoxytetrahydro-2-furanyl)oxy]{(2S,3S,4R,5R)-5-[2,4-dioxo-3,4-dihydro-1 (2H)-pyrimidinyl]-3,4-dihydroxytetrahydro-2-furanyl}methyl)-9-(1-hydroxy-2-methylpropyl)-6-(2-iminohexahydro-4-pyrimidinyl)-2-isopropyl-4,7,10-trioxo-3,5,8,11,15-pentaazaheptadecane-1,17-dioic Acid] | > 32 | > 32 | > 32 | > 32 | > 32 | > 32 | > 32 | > 32 | > 32 | > 32 | > 32 | > 32 | > 32 | > 32 | > 32 | > 32 | > 32 | > 32 | > 32 | > 32 |  |
